Results published in US8652770B2, “Storage of platelets under pressure with xenon containing atmosphere” (Rich Products Corporation, priority 2008, dated 2014).

Assays:
Assay type in all cases: cell-based, rabbit
platelets [1] = test: Platelet cell counting (hemocytometer) after storage of PRP; set-up: # cells: unit not given here; conditions: 4° C.; for # cells: Table 3, 4 bars total pressure of gas, 7 days; for Cell number: Input = 100%
Method: Blood was obtained by puncturing a rabbit marginal ear vein and collecting blood in a sterile vacuum tube. About 10-15 ml of blood was used, although the amount taken from any particular individual can be varied by the skilled artisan according to routine considerations, such as the size of the individual and the intended use of the platelets prepared according to the method of the invention.
The blood was centrifuged at a speed of approximately 200 g for 10 minutes to separate red blood cells (RBC) and platelet rich plasma (PRP). The PRP was transferred to another tube.
(§1) Two microliters of PRP were used to count cells essentially as described in Born et al. (J. Physiol. (1963) Vol. 168, pp 178-195). An additional two microliters were used for antibody staining and flow cytometry analysis performed essentially as reported in Shattil et al. (1987) Detection, Blood Vol. 70 p 307-315.
(§2) For determining platelet aggregation, approximately 250 microliters of PRP were used for a pre-treatment aggregation test. The remaining PRP was transferred to test tubes in which the atmosphere was adjusted to include xenon under two distinct pressures (4 bars of total pressure created by introducing 99.999% xenon into the test tube in a first set of experiments, and 5.3 bars of total pressure, also created by introducing 99.999% xenon into the test tube, in a second set of experiments). For adjusting the atmosphere in the containers, the test tubes were covered with rubberized caps that were punctured for introducing xenon. The test tubes were put into an experimental chamber and the atmosphere in the test tubes was adjusted by filling the test tubes with xenon using a 0.2-micrometer aseptic filter. Pressure changes in the tubes were measured using a manometer. Negative controls (no adjustment of the composition of the atmosphere in which the platelets were held) were also performed.
(§3) The chambers were shaken at 150-200 rpm on a Biosan OS-10 orbital shaker for one hour at ambient temperature (approximately 23° C.) to dissolve xenon in the PRP. The experimental chambers were then stored at approximately 4° C. with shaking at 50-70 rpm using a Biosan OS-10 orbital shaker and removed at one and two week time points for experiments under 4 bars of xenon pressure. The experiment using the initial xenon pressure of 5.3 bars were stored at 4° C. for 1 week.
After storage, the chambers were removed from refrigeration and kept at ambient temperature (approximately 23° C.) for 30 minutes with shaking at approximately 150-200 rpm. The atmosphere was then slowly allowed to equilibrate with ambient pressure of a period of 30 minutes by allowing the atmosphere in the chamber and in the test tubes to equilibrate with the atmosphere outside the test tubes through a specially adapted valve. […]
Subsequent to allowing the atmosphere in the experimental and control tubes to equilibrate with ambient pressure and temperature, the PRP samples were analyzed using conventional hemocytometer based cell counting, induced aggregation analysis using ADP and epinephrine, whereby aggregation was determined using manual counting and aggregometer analysis according to standard techniques, and by cd62p/cd61 immunostaining and flow cytometry analysis performed on an Epic XL, Beckman-Coulter cytometry machine. […]

platelets [2] = test: ADP-induced platelet aggregation, xenon compared to argon, vacuum step omitted; conditions: Table 3, 4 bars total pressure of gas, 4° C., 7 days, no vacuum step
Method: In view of the result obtained in Table 2, we performed another set of experiments to compare the properties of xenon to argon in ADP-induced platelet aggregation assays, the results of which are depicted in Table 3.
The experiments summarized in Table 3 were performed using an atmosphere of 4 bars total pressure created by introducing xenon or argon into the containers using essentially the same techniques as for the experiments described for Tables 1 and 2, except the PRP samples were cooled to 4° C. and held at approximately in an atmosphere of 3.8 bar xenon for 7 days. In this experiment, the initial partial pressure of xenon was 4 bars, but the pressure dropped to 3.8 bars during storage, presumably due to dissolution of xenon into the platelets from the atmosphere in the container.

platelets [3] = test: ADP/epinephrine induced platelet aggregation after storage of PRP; conditions: for Aggregation (ADP/epinephrine): Xe 4 bars, Input = 100%; for Aggregation (ADP/epinephrine), %: Table 2, 7 days Xe, 4 bars
Source text: as §2, §3
After storage, the chambers were removed from refrigeration and kept at ambient temperature (approximately 23° C.) for 30 minutes with shaking at approximately 150-200 rpm. The atmosphere was then slowly allowed to equilibrate with ambient pressure of a period of 30 minutes by allowing the atmosphere in the chamber and in the test tubes to equilibrate with the atmosphere outside the test tubes through a specially adapted valve. Once the atmosphere in the chambers and test tubes equilibrated with ambient pressure, a vacuum was applied for approximately three minutes at approximately 380 mmHg to remove residual xenon from the PRP.
(§4) Analysis of the platelet function after storage included platelet counting at a hemocytometer, platelet aggregation tests using ADP and epinephrine as aggregation inducing agents, with manual counting and analysis using an aggregometer, and CD62p/CD61 antibody staining, with subsequent flow cytometry analysis on Epic XL, Beckman-Coulter generally as described in Shattil et al. (1987) Blood Vol. 70 p […] of platelets were stained using anti-CD62p and anti-CD61 antibodies obtained from commercial vendors.
(§5) Subsequent to allowing the atmosphere in the experimental and control tubes to equilibrate with ambient pressure and temperature, the PRP samples were analyzed using conventional hemocytometer based cell counting, induced aggregation analysis using ADP and epinephrine, whereby aggregation was determined using manual counting and aggregometer analysis according to standard techniques, and by cd62p/cd61 immunostaining and flow cytometry analysis performed on an Epic XL, Beckman-Coulter cytometry machine. The cdc62p/cd61 analysis was performed using commercially available antibodies and generally according to the known method reported in Shattil et al. (1987) Detection of activated platelets in whole blood using activation-dependent monoclonal antibodies and flow cytometry, Blood Vol. 70 p 307-315.

Cd41/62p = Cd41/62p immunostaining and flow cytometry (platelet activation markers); conditions: for Cd41/62p: % of cells with activation markers, Xe 4 bars, 4° C., Input 13%
Source text: We analyzed platelet activation using a standard methodology comprising immunostaining platelets for CD62 and CD41 and subsequent analysis by flow cytometry. […] Thus, it will be recognized by those skilled in the art that the invention provides stored platelet preparations that are useful for treating individuals in need of platelet transfusion therapy. It is therefore considered that practicing the method of the invention transforms a platelet concentrate that would not ordinarily tolerate refrigeration into a platelet concentrate that can withstand refrigeration such that the platelet concentrate remains useful for transfusions after being stored at refrigerated temperature for at least two weeks. It will also be recognized that the platelet concentrate has other potential uses, such as in high-throughput assays to screen a test agent for the capability to modify platelet function.
as §1, §4, §5
In Table 1, “Input” represents pre-treatment/storage measurements. Cell number and Aggregation induced by ADP/epinephrine before performing the method are used to set 100% values. […] NG=no gas. […]

SMILES	# cells (platelets [1])	Aggregation % (platelets [2]) [%]	Cell number (platelets [1]; PRP stored 7 days, Xe 4 bars) [%^]	Cell number (platelets [1]; PRP stored 7 days, Xe 5.3 bars) [%]	Cell number (platelets [1]; PRP stored 14 days, Xe 4 bars) [%]	improvement of ADP/Epinephrine induced aggregation by evacuating residual xenon with vacuum (platelets [3]; 7 days Xe 4 bars 4° C., with vs without vacuum) [%]	Aggregation (ADP/epinephrine) (platelets [3]; PRP stored 7 days, 4° C.) [%]	Aggregation (ADP/epinephrine) (platelets [3]; PRP stored 14 days, 4° C.) [%^]	Aggregation (ADP/epinephrine), % (platelets [3]; 4° C. with three minutes vacuum application) [%]	Aggregation (ADP/epinephrine), % (platelets [3]; 4° C., no vacuum) [%]	induced aggregation higher than no gas control (platelets [3]; after 2 weeks of storage, 4 bar xenon treated sample vs NG control)	Cd41/62p (Cd41/62p; PRP stored 7 days) [%]	Cd41/62p (Cd41/62p; PRP stored 14 days) [%]	surface CD62 and CD41 over control platelet concentrates not treated with xenon (Cd41/62p; platelet concentrates treated by the method)	inhibition of spontaneous activation (Cd41/62p) relative to the NG control (Cd41/62p; xenon 4 bar atmosphere treated samples)
[Ar] [Argon, argon, reference compound]	594 *106	100	–	–	–	–	–	–	–	–	–	–	–	–	–
[Xe] [Xenon, xenon]	674 *106	87	77.5	12.6	59	20	83	54.5	72	53	about 20%	39	33	two-fold less	two-fold better inhibition
